One assay deals with T1, recombinant human MMP-2 (Homo sapiens, UniProt P08253).
T1 sequence (P08253 110-660): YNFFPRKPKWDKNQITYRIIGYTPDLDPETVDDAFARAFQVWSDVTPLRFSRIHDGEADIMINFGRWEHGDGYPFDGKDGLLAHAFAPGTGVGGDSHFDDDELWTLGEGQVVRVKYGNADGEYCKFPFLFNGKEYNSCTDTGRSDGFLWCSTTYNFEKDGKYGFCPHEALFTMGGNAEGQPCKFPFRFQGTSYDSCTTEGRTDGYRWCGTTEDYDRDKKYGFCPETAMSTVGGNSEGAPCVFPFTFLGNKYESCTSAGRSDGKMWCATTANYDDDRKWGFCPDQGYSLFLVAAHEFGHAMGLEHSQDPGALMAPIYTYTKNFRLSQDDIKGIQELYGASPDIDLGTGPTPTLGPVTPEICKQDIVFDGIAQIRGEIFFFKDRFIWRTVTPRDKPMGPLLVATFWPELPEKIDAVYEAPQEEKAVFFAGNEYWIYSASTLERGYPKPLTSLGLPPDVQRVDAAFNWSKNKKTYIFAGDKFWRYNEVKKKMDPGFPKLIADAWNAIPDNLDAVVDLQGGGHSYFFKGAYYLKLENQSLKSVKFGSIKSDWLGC
The assay can be described thus: In vitro fluorescence assay of MMP-2 activity.

The target of assay [1] is T2, recombinant human catalytic domain of MMP-14 (Homo sapiens, UniProt P50281).
T2 construct: 177 amino acids corresponding to Tyr89-Gly265 of mature human enzyme; purchased Chemicon International, Inc. CC1041
In words: In vitro fluorescence assay of MMP-14 activity. In kind it is biochemical. Conditions: Table 1; unit inferred.

The subject of assay [2] is bovine articular cartilage treated with Interleukin 1 alpha (IL-1α). In words: Bovine articular cartilage explant cultures: inhibition of degradation of proteoglycan. Type of assay: cell-based. Conditions: inhibitory effect expressed as percentage, concentration not printed. A digest of the protocol: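 Bovine metacarpal cartilage discs (6 mm), equilibrated in serum-free DMEM-based medium, were treated with 5 ng/ml IL-1 plus compound (working solutions 0.1-10 μg/ml), with medium collected and replaced on days 1, 2 and 3. Released proteoglycan was measured by DMMB absorbance at 520 nm against chondroitin sulphate standards, expressed as μg per mg cartilage, and inhibition given as percentage.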

The target in assay [3] is T3, purified recombinant human Aggrecanase-2 (Ag2t-Phe628-Strep) (Homo sapiens, UniProt Q9UNA0).
T3 construct: the form used is denoted as Ag2t-Phe628-Strep (MW=41,737)
T3 sequence (Q9UNA0 262-628): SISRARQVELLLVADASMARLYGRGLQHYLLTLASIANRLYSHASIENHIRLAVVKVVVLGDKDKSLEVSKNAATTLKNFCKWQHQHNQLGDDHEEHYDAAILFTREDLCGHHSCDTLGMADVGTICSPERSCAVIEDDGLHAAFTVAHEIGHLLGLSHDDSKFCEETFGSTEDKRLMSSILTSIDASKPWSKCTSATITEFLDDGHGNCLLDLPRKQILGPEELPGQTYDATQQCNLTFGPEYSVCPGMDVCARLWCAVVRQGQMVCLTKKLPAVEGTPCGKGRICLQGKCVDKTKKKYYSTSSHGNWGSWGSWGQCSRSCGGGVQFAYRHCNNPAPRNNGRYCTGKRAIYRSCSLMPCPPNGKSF
The assay can be described thus: In vitro fluorescence screen for Aggrecanase-2 inhibitors. Type of assay: biochemical. Conditions: Table 1; read-out: Agg 2 IC50.

In assay [4] the target is T4, purified recombinant human Aggrecanase-1 (rAgg1) (Homo sapiens, UniProt O75173).
T4 sequence (O75173 213-837): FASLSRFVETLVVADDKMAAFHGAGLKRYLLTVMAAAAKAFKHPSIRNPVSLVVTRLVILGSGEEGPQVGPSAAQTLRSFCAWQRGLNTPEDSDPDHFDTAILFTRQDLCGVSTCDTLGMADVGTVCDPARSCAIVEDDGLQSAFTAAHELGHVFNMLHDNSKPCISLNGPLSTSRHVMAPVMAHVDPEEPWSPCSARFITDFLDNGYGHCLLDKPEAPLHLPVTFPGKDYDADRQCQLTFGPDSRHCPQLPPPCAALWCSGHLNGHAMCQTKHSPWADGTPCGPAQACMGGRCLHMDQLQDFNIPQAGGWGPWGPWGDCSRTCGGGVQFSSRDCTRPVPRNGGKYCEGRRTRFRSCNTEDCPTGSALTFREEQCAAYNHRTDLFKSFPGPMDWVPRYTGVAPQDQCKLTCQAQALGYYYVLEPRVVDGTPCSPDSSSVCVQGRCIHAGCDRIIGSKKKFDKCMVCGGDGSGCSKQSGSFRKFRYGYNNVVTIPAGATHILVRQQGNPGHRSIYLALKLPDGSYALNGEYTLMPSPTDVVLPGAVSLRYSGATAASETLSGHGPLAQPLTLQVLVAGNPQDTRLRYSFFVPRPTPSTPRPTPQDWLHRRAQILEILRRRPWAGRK
The assay can be described thus: In vitro fluorescence screen for Aggrecanase-1 inhibitors. In kind it is biochemical. To be noted: Table 1; for Ki: enzyme not given, column follows Agg1 IC50, read-out: Ki; for IC50: read-out: Agg1 IC50.

In assay [5] the target is T5, recombinant human catalytic domain of MMP-13 (Homo sapiens, UniProt P45452).
T5 construct: catalytic domain of MMP-13 (165 amino acids, residues 104-268, 19 kDa)
The assay can be described thus: In vitro fluorescence assay of MMP-13 activity. Type of assay: biochemical. Conditions: Table 1; unit inferred.

The target of another assay is T6, MMP-1 (Homo sapiens, UniProt P03956).
T6 sequence (P03956 100-469): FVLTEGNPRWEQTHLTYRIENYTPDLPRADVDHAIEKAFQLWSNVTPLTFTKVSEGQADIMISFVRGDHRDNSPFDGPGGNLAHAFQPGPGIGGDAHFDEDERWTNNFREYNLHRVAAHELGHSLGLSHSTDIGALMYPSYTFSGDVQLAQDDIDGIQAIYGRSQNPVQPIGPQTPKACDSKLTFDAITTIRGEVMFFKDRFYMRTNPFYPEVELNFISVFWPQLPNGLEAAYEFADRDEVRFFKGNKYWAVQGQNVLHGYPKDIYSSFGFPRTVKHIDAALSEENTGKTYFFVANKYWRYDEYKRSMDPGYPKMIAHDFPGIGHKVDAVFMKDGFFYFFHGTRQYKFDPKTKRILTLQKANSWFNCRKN
The assay can be described thus: MMP-1 of Table 1. Type of assay: biochemical. Conditions: for IC50: unit inferred; for MMP-1: unit not given.

Setting [6] is: Table 1, first of two columns headed bovine.
[7] abbreviates: Table 1, second of two columns headed bovine.

We go through eleven compounds from patent US7998965B2, “Glutamate aggrecanase inhibitors” (Wyeth LLC, priority 2005, dated 2011).

Experimental for recombinant human MMP-2: A continuous assay was used in which the substrate is a synthetic peptide containing a fluorescent group (7-methoxycoumarin; Mca), which is quenched by energy transfer to a 2,4-dinitrophenyl group. […] The source of enzyme in the assay was the recombinant human MMP-2 (66 kDa; Oncogene Research Products (catalog number PF023 from Calbiochem)). The substrate used was the peptide Mca-PQGL-(3-[2,4-dinitrophenyl]-L-2,3-diaminopropionyl)-AR-OH. The assay buffer consisted of 50 mM Hepes (pH 7.4), 100 mM NaCl, 5 mM CaCl2, and 0.005% Brij-35. […] The plates were then incubated at 30° C. for 15 minutes. The enzymatic reactions were initiated by adding the substrate to a final concentration of 20 μM, and mixing 10 times with a pipette. The final DMSO concentration in the assay was 6.0%.
Plots of the inhibitor concentration vs. the percent inhibition were fit to the following equation: y=(a−d)/[^1+(x/c)^b]+d, a general sigmoidal curve with Hill slope, a to d. x is the inhibitor concentration under test. y is the percent inhibition. a is the limiting response as x approaches zero. As x increases without bound, y tends toward its limit d. c is the inflection point (IC50) for the curve. That is, y is halfway between the lower and upper asymptotes when x=c. b is the slope factor or Hill coefficient.

As a reminder, the IC50 is the concentration at which inhibition is half-maximal. By Ki is commonly meant a measure of affinity in units of concentration, obtained from inhibition or displacement. In the case of `O=C(O)CC[C@H](NC(=O)c1ccc(-c2ccccc2)cc1)C(=O)NCc1cccc(I)c1` [Example 8JJ, N^2-(1,1′-biphenyl-4-ylcarbonyl)-N^1-(3-iodobenzyl)-L-α-glutamine], the IC50 was 27 µM at recombinant human MMP-2; > 200 µM in assay [1]; 1.1 µM in assay [3]; 0.045 µM in assay [4]; 17 µM in assay [5]; > 200 µM against MMP-1. The bovine came out at 70% in assay [2] (setting [6]) and 17% in assay [2] (setting [7]). For the same compound, the Ki in assay [4] was 0.033 µM.

As to `C=Cc1cccc(CNC(=O)[C@H](CCC(=O)O)NC(=O)c2ccc(-c3ccccc3)cc2)c1` [Example 10M, N^2-(1,1′-biphenyl-4-ylcarbonyl)-N^1-(3-vinylbenzyl)-L-α-glutamine], the IC50 on recombinant human MMP-2 is > 20 µM; in assay [1], > 200 µM; in assay [3], 1.1 µM; in assay [4], 0.043 µM; in assay [5], ~20 µM; against MMP-1, > 50 µM. Besides, the bovine was 67% in assay [2] (setting [6]) and 35% in assay [2] (setting [7]). Further, the Ki in assay [4] came to 0.054 µM.

`Cc1ccc(CNC(=O)[C@H](CCC(=O)O)NC(=O)c2ccc(-c3ccccc3)cc2)cc1C` [Example 8DD, N^2-(1,1′-biphenyl-4-ylcarbonyl)-N^1-(3,4-dimethylbenzyl)-L-α-glutamine]: the IC50 at recombinant human MMP-2 is 4.58 µM; in assay [1], 16.2 µM; in assay [3] it was 0.93 µM; in assay [4] it was 0.094 µM; in assay [5], ~22 µM. Moreover, the bovine is on record as 89% in assay [2] (setting [6]) and 50% in assay [2] (setting [7]). The MMP-1 entry at MMP-1 is “no inh”.

On to `COc1cc(CNC(=O)[C@H](CCC(=O)O)NC(=O)c2ccc(-c3ccccc3)cc2)cc(OC)c1` [Example 8CC, N^2-(1,1′-biphenyl-4-ylcarbonyl)-N^1-(3,5-dimethoxybenzyl)-L-α-glutamine], for which the IC50 on recombinant human MMP-2 is 5.65 µM; in assay [1] it was ~25 µM; in assay [3] it was 0.121 µM; in assay [4] it was 0.022 µM; in assay [5], ~22 µM. For the same compound, the results for the bovine in assay [2] (setting [6]) and in assay [2] (setting [7]) were 94% and 71%, respectively. Moreover, the Ki in assay [4] is 0.019 µM. Also, at MMP-1, the MMP-1 entry is “no inh”.

With `O=C(O)CC[C@H](NC(=O)c1ccc(-c2cccs2)cc1)C(=O)NCc1ccccc1` [Example 11, N^1-benzyl-N^2-(4-thien-2-ylbenzoyl)-L-α-glutamine], the IC50 is ~1 µM at recombinant human MMP-2; ~2 µM in assay [1]; ~0.8 µM in assay [3]; 0.11 µM in assay [4]; ~5 µM in assay [5]; ~2 µM at MMP-1. Moreover, the figures for the bovine in assay [2] (setting [6]) and in assay [2] (setting [7]) were 78% and 52%, respectively.

Consider `COc1ccc(CCNC(=O)[C@H](CCC(=O)O)NC(=O)c2ccc(-c3ccccc3)cc2)cc1` [Example 8M, N^2-(1,1′-biphenyl-4-ylcarbonyl)-N^1-[2-(4-methoxyphenyl)ethyl]-L-α-glutamine], for which the half-maximal inhibitory concentration (IC50) on recombinant human MMP-2 was 8 µM; in assay [1], 13 µM; in assay [3], 0.856 µM; in assay [4], 0.12 µM; in assay [5], ~50 µM; against MMP-1 it was > 100 µM. Besides, the bovine is 85% in assay [2] (setting [6]) and 17% in assay [2] (setting [7]).

As for `CSc1ccc(CNC(=O)[C@H](CCC(=O)O)NC(=O)c2ccc(-c3ccccc3)cc2)cc1` [Example 8V, N^2-(1,1′-biphenyl-4-ylcarbonyl)-N^1-[4-(methylthio)benzyl]-L-α-glutamine], the IC50 is 3.43 µM on recombinant human MMP-2; ~30 µM in assay [1]; 1.1 µM in assay [3]; 0.16 µM in assay [4]; ~67 µM in assay [5]; > 100 µM at MMP-1. Besides, the bovine came out at 73% in assay [2] (setting [6]) and 45% in assay [2] (setting [7]).

For the compound `O=C(O)CC[C@H](NC(=O)c1ccc(-c2ccccc2)cc1)C(=O)NC1C2CC3CC(C2)CC1C3` (stereo partly drawn) [Example 8H, N^1-2-adamantyl-N^2-(1,1′-biphenyl-4-ylcarbonyl)-L-α-glutamine], the IC50 at recombinant human MMP-2 was 3.31 µM; in assay [1] it was ~25 µM; in assay [3], 0.266 µM; in assay [4], 0.2 µM; in assay [5] it was ~50 µM; against MMP-1, > 100 µM. The values for the bovine in assay [2] (setting [6]) and in assay [2] (setting [7]) were 85% and 67%, respectively.

Consider `Cc1cccc(CNC(=O)[C@H](CCC(=O)O)NC(=O)c2ccc(-c3ccccc3)cc2)c1` [Example 8O, N^2-(1,1′-biphenyl-4-ylcarbonyl)-N^1-(3-methylbenzyl)-L-α-glutamine], for which the IC50 was 5 µM on recombinant human MMP-2; ~22 µM in assay [1]; 1.3 µM in assay [3]; 0.075 µM in assay [4]; 31.4 µM in assay [5]. Also, the bovine is recorded as 69% in assay [2] (setting [6]) and 34% in assay [2] (setting [7]). Besides, the inhibition constant Ki in assay [4] is 0.082 µM. Moreover, the MMP-1 entry at MMP-1 was “no inh”.

On to `COc1cccc(CNC(=O)[C@H](CCC(=O)O)NC(=O)c2ccc(-c3ccccc3)cc2)c1` [Example 8Q, N^2-(1,1′-biphenyl-4-ylcarbonyl)-N^1-(3-methoxybenzyl)-L-α-glutamine], for which the IC50 is 6.1 µM at recombinant human MMP-2; ~22 µM in assay [1]; 0.4 µM in assay [3]; 0.011 µM in assay [4]; 37.3 µM in assay [5]. For the same compound, the bovine was determined as 66% in assay [2] (setting [6]) and 24% in assay [2] (setting [7]). In addition, the inhibition constant (Ki) in assay [4] was 0.031 µM. In addition, on MMP-1, the MMP-1 result is reported as “no inh”.

As for `O=C(O)CC[C@H](NC(=O)c1ccc(-c2ccccc2)cc1)C(=O)NCc1cccc(-c2cccs2)c1` [Example 10N, N^2-(1,1′-biphenyl-4-ylcarbonyl)-N^1-(3-thien-2-ylbenzyl)-L-α-glutamine], the IC50 on recombinant human MMP-2 is 7.6 µM; in assay [1] it was > 200 µM; in assay [3] it was 0.97 µM; in assay [4], 0.019 µM; in assay [5] it was > 50 µM; at MMP-1 it was > 200 µM. Further, the bovine was 65% in assay [2] (setting [6]) and 24% in assay [2] (setting [7]). Further, the Ki in assay [4] is 0.028 µM.
